Our source for the Ki values is patent US8691815B2, “Substituted oxindole derivatives, drugs containing said derivatives and the use thereof” (AbbVie Deutschland GmbH & Co. KG, priority 2005, dated 2014).

The structures appear in SMILES notation. Counter-ions that a name gives are not always drawn.

For the test, the target named is T1, human vasopressin V1b receptor (Homo sapiens, UniProt P47901).
T1 construct: expressed in transfected cells; host or cells: CHO-K1 (cell line hV1b-3H2_CHO), membrane preparation
T1 sequence (P47901 1-424): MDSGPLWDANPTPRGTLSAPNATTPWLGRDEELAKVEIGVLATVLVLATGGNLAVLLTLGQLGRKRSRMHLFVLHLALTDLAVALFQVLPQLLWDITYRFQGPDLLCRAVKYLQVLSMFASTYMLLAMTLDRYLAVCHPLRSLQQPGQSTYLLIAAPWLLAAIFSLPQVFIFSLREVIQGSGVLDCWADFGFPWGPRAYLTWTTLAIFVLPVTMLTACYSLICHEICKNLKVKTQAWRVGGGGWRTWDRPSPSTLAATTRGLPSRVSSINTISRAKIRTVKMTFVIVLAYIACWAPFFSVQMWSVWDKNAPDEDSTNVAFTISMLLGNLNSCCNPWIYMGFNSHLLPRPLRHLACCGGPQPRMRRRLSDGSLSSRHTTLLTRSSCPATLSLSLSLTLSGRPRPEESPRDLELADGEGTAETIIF
The experiment in a line: Vasopressin V1b receptor binding assay. The following applies: membranes from CHO-K1 cells with stably expressed human V1b receptors, displacement of 1.5 nM 3H-AVP. The method, then: Vasopressin V1b Receptor Binding Assay:
The test substances were dissolved in a concentration of 10^−2 M in DMSO (dimethyl sulfoxide) and further diluted to 5×10^−4 M to 5×10^−9 M in DMSO. This series of DMSO predilutions was diluted 1:10 with assay buffer. The substance concentration was again diluted 1:5 in the assay mixture (2% DMSO in the mixture).
The membrane pellet was again homogenized and centrifuged as described and then taken up in 50 mM Tris-HCl, pH 7.4, homogenized and stored in aliquots frozen in liquid nitrogen at −190° C.
The incubation buffer was: 50 mM Tris, 10 mM MgCl2, 0.1% BSA, pH 7.4.
The nonspecific binding was determined with 1 uM AVP (Bachem # H1780). All determinations were carried out as triplicate determinations. After incubation (60 minutes at room temperature), the free radioligand was removed by vacuum filtration (Skatron cell harvester 7000) through Whatman GF/B glass fiber filter mats, and the filters were transferred into scintillation vials. The liquid scintillation measurement took place in a Tricarb model 2000 or 2200CA instrument (Packard). Conversion of the measured cpm into dpm was carried out with the aid of a standard quench series.
The binding parameters were calculated by nonlinear regression in SAS.
As to `COc1ccc(S(=O)(=O)N2C(=O)C(c3cc(CN4CCCCC4)ccc3OC)(N3CCC[C@H]3C(=O)N(C)C)c3cc(Cl)ccc32)c(OC)c1` (stereo partly drawn) [Example 26, (S)-1-[5-Chloro-1-(2,4-dimethoxybenzenesulfonyl)-3-(2-methoxy-5-piperidin-1-yl-methylphenyl)-2-oxo-2,3-dihydro-1H-indol-3-yl]pyrrolidin-2-dimethylcarboxamide trifluoroacetic acid salt], the Ki is less than 1 nM.
In the case of `COc1cc(CN2CCN(C)CC2)ccc1C1(N2CCC[C@H]2C(=O)N(C)C)C(=O)N(S(=O)(=O)c2ccc(C#N)cc2)c2ccc(Cl)cc21` (stereo partly drawn) [Example 80, (S)-1-{5-Chloro-1-(4-cyanobenzenesulfonyl)-3-[2-methoxy-4-(4-methylpiperazin-1-ylmethyl)phenyl]-2-oxo-2,3-dihydro-1H-indol-3-yl}pyrrolidine-2-carboxylic acid dimethylamide, trifluoroacetic acid salt], the Ki is less than 1 nM.
The value for `COc1ccc(S(=O)(=O)N2C(=O)C(c3ccc(CN4CCOCC4)cc3OC)(N3CCC[C@H]3C(=O)N(C)C)c3cc(Cl)ccc32)cc1` (stereo partly drawn) [Example 71, (S)-1-[5-Chloro-1-(4-methoxybenzenesulfonyl)-3-(2-methoxy-4-morpholin-4-yl-methylphenyl)-2-oxo-2,3-dihydro-1H-indol-3-yl]pyrrolidine-2-dimethylcarboxamide, trifluoroacetic acid salt] was less than 1 nM; that for `COc1ccc(S(=O)(=O)N2C(=O)C(c3ccc(CN(C)C)cc3OC)(N3CCC[C@H]3C(=O)N(C)C)c3cc(Cl)ccc32)c(OC)c1` (stereo partly drawn) [Example 7, (S)-1-[5-Chloro-1-(2,4-dimethoxybenzenesulfonyl)-3-(4-dimethylaminomethyl-2-methoxyphenyl)-2-oxo-2,3-dihydro-1H-indol-3-yl]-pyrrolidin-2-dimethylcarboxamide] was 1 to 10 nM.
In the case of `COc1ccc(S(=O)(=O)N2C(=O)C(c3ccc(CN4CCNCC4)cc3OC)(N3CCC[C@H]3C(=O)N(C)C)c3cc(Cl)ccc32)cc1` (stereo partly drawn) [Example 79, (S)-1-[5-Chloro-1-(4-methoxybenzenesulfonyl)-3-(2-methoxy-4-piperazin-1-yl-methylphenyl)-2-oxo-2,3-dihydro-1H-indol-3-yl]pyrrolidine-2-dimethylcarboxamide, trifluoroacetic acid salt], the Ki is less than 1 nM.
The value for `COc1cc(CN2CCOCC2)ccc1C1(N2CCC[C@H]2C(=O)N(C)C)C(=O)N(S(=O)(=O)c2ccc(F)cc2)c2ccc(Cl)cc21` (stereo partly drawn) [Example 77, (S)-1-[5-Chloro-1-(4-fluorobenzenesulfonyl)-3-(2-methoxy-4-morpholin-4-ylmethyl-phenyl)-2-oxo-2,3-dihydro-1H-indol-3-yl]pyrrolidine-2-dimethylcarboxamide, trifluoroacetic acid salt] was 10 to 100 nM.
Under `COc1ccc(S(=O)(=O)N2C(=O)C(c3cc(CN(C)C)ccc3OC)(N3CCC[C@H]3C(=O)N(C)C)c3cc(Cl)ccc32)c(OC)c1` (stereo partly drawn) [Example 24, (S)-1-[5-Chloro-1-(2,4-dimethoxybenzenesulfonyl)-3-(5-dimethylaminomethyl-2-methoxyphenyl)-2-oxo-2,3-dihydro-1H-indol-3-yl]pyrrolidine-2-dimethylcarboxamide, trifluoroacetic acid salt] stands less than 1 nM; under `COc1ccc(S(=O)(=O)N2C(=O)C(c3ccc(CN(C)C)cc3OC)(N3CCC[C@H]3C(=O)N(C)C)c3cc(Cl)ccc32)cc1` (stereo partly drawn) [Example 70, (S)-1-[5-Chloro-3-(4-dimethylaminomethyl-2-methoxyphenyl)-1-(4-methoxy-benzenesulfonyl)-2-oxo-2,3-dihydro-1H-indol-3-yl]pyrrolidine-2-dimethylcarboxamide, trifluoroacetic acid salt], less than 1 nM; under `CCCNCc1ccc(C2(N3CCC[C@H]3C(=O)N(C)C)C(=O)N(S(=O)(=O)c3ccc(OC)cc3)c3ccc(Cl)cc32)c(OC)c1` (stereo partly drawn) [Example 85, (S)-1-[5-Chloro-1-(4-methoxybenzenesulfonyl)-3-(2-methoxy-4-propylaminomethyl-phenyl)-2-oxo-2,3-dihydro-1H-indol-3-yl]pyrrolidine-2-dimethylcarboxamide, trifluoroacetic acid salt], less than 1 nM.
Turning to `CCNCc1ccc(C2(N3CCC[C@H]3C(=O)N(C)C)C(=O)N(S(=O)(=O)c3ccc(OC)cc3)c3ccc(Cl)cc32)c(OC)c1` (stereo partly drawn) [Example 93, (S)-1-[5-Chloro-3-(4-ethylaminomethyl-2-methoxyphenyl)-1-(4-methoxybenzene-sulfonyl)-2-oxo-2,3-dihydro-1H-indol-3-yl]pyrrolidine-2-dimethylcarboxamide, trifluoroacetic acid salt], the Ki was less than 1 nM.
Turning to `COc1cc(CN(C)C)ccc1C1(N2CCC[C@H]2C(=O)N(C)C)C(=O)N(S(=O)(=O)c2ccc(F)cc2)c2ccc(Cl)cc21` (stereo partly drawn) [Example 73, (S)-1-[5-Chloro-3-(4-dimethylaminomethyl-2-methoxyphenyl)-1-(4-fluorobenzene-sulfonyl)-2-oxo-2,3-dihydro-1H-indol-3-yl]pyrrolidine-2-dimethylcarboxamide, trifluoroacetic acid salt], the Ki lay in the range of 1 to 10 nM.
Take `COCCN(C)Cc1ccc(C2(N3CCC[C@H]3C(=O)N(C)C)C(=O)N(S(=O)(=O)c3ccc(OC)cc3)c3ccc(Cl)cc32)c(OC)c1` (stereo partly drawn) [Example 89, (S)-1-[5-Chloro-1-(4-methoxybenzenesulfonyl)-3-(2-methoxy-4-{[(2-methoxyethyl)-methylamino]methyl}phenyl)-2-oxo-2,3-dihydro-1H-indol-3-yl]pyrrolidine-2-dimethyl-carboxamide, trifluoroacetic acid salt]: the Ki is less than 1 nM.
Compound `COc1cc(CN2CCN(C)CC2)ccc1C1(N2CCC[C@H]2C(=O)N(C)C)C(=O)N(S(=O)(=O)c2ccc(F)cc2)c2ccc(Cl)cc21` (stereo partly drawn) [Example 74, (S)-1-{5-Chloro-1-(4-fluorobenzenesulfonyl)-3-[2-methoxy-4-(4-methylpiperazin-1-yl-methyl)phenyl]-2-oxo-2,3-dihydro-1H-indol-3-yl}pyrrolidine-2-dimethylcarboxamide, trifluoroacetic acid salt] had a Ki of less than 1 nM.
On to `COc1ccc(S(=O)(=O)N2C(=O)C(c3cc(CN4CCCCC4)ccc3OC)(N3CCC[C@H]3C(=O)N(C)C)c3cc(Cl)ccc32)cc1` (stereo partly drawn) [Example 19, (S)-1-[5-Chloro-1-(4-methoxybenzenesulfonyl)-3-(2-methoxy-5-piperidin-1-ylmethyl-phenyl)-2-oxo-2,3-dihydro-1H-indol-3-yl]pyrrolidine-2-dimethylcarboxamide, trifluoroacetic acid salt], for which the inhibitory constant (Ki) was less than 1 nM.
For `COc1ccc(S(=O)(=O)N2C(=O)C(c3cc(CN4CCN(C)CC4)ccc3OC)(N3CCC[C@H]3C(=O)N(C)C)c3cc(Cl)ccc32)cc1` (stereo partly drawn) [Example 20, (S)-1-{5-Chloro-1-(4-methoxybenzenesulfonyl)-3-[2-methoxy-5-(4-methylpiperazin-1-yl-methyl)phenyl]-2-oxo-2,3-dihydro-1H-indol-3-yl}pyrrolidine-2-dimethylcarboxamide, trifluoroacetic acid salt], the Ki was less than 1 nM.

As a reminder, the Ki is the dissociation constant of the complex between target and ligand, obtained from inhibition or displacement. Read a high Ki as lower affinity.
